In US12636299B2, “Terpenoid derivatives, pharmaceutical preparations containing these derivatives and their use in neuroprotection” (UNIVERZITA PALACKEHO V OLOMOUCI, priority 2020, dated 2026):

Legend:
[1] = tested on: superoxide radical formation; test: Oxidative stress (superoxide radical formation, DHE) in 3NPA-induced model on SH-SY5Y; format: cell-based, human; settings: for Superoxide radical formation (oxidative stress) %: 20 mM 3NPA = 100%, 24 hours
Experimental: Similarly, to previous assay, cells grown on 96-multiwell plates at density 20000 cells per well underwent differentiation and treatment procedure with 3-nitropropionic acid (3NPA) in this model. After 24 hours of co-treatment with 20 mM 3NPA, superoxide radical's formation as a marker of oxidative stress was quantified by dihydroethidium according to Kim et al. (2017, J. Med. Food, 20, 140-151). Briefly, neuron-like SH-SY5Y cells were centrifuged at 500 g for 5 min and 30 s, then media were replaced by 10 μM DHE PBS solution and kept at room temperature for 30 min. After that, DHE was read at 500 nm/580 nm (excitation/emission) by Infinite M200 Pro (Tecan) microplate reader. DHE is cell permeable dye which is selective for superoxide radical detection. Overall oxidative stress achieved by 20 mM 3NPA was consider as 100% and thus the reduction in superoxide radical's formation (OS reducing effect) was determined. As shown in Table 6 and FIG. 2, 20 mM 3NPA induced 2.7-fold increase in superoxide radical's formation.

[2] = tested on: human neuroblastoma cell line SH-SY5Y; test: Viability of differentiated SH-SY5Y in salsolinol-induced model of PD (Calcein AM); format: cell-based; settings: for Neuroprotective effect (% of control): difference between 800 μM SAL and co-treatment group means
Experimental: Similarly, as in previous “Safety test”, the SH-SY5Y cells were seeded at density 7000 cells/well. After 48 h differentiation, old 1% DMEM/F12 media was replaced by fresh media containing 800 μM salsolinol (SAL) and tested compounds in 0.1, 1 and 10 μM concentrations. N-acetylcystein were chosen as positive control. After 24 hours, the cell viability was measured by Calcein AM viability assay. The values in Table 2 show % of viability of all tested compounds relative to control. The control (medium with DMSO, <0.1% (v/v)) was postulated as 100% viability (see the first line of the table), while the SAL exposure lead to decrease of viability to 65.4±0.97%.

caspase-3,7 activity = test: Caspase-3,7 activity in salsolinol-induced model of PD on SH-SY5Y (Ac-DEVD-AMC); format: cell-based, human; settings: for Caspase-3,7 activity (% of 800 μM SAL control): percentages of control (800 μM SAL = 100), 24 hour co-treatment; for reduction of caspase-3,7 activity, in words: 800 μM SAL, compounds 3 and 4 at 10 μM compared with NAC
Experimental: Similarly, as shown in previous assay, cells grew on 96 multiwell plates at density 20000 cells per well underwent differentiation and treatment procedure for salsolinol model. After 24 hour co-treatment with salsolinol, caspase-3,7 (casp-3,7) activity as marker of apoptosis was quantified by its substrate Ac-DEVD-AMC according to Carrasco et al. (2003, BioTechniques, 34, 1064-1067). In this model, overall casp-3,7 activity induced by 800 μM SAL was consider as 100% and thus the reduction in casp-3,7 was observed after treatment with the protective terpenoid derivatives. As shown in Table 4 and FIG. 2, 800 μM SAL induced 2.9-fold increase.

glial A-172 cells = test: Cytotoxicity, Calcein AM viability assay on glial A-172 cells; format: cell-based, human; settings: 48 hours
[3] = tested on: human neuron-like SH-SY5Y cells; test: 3NPA-induced model of Huntington's disease, neuron-like SH-SY5Y cells; format: cell-based; settings: difference to 20 mM 3NPA, 48 h
Experimental: (§1) Before application of toxin 3-nitropropionic acid (3NPA) for mimicking Huntington's disease, the 3NPA was dissolved in water and neutralized by sodium hydroxide. SH-SY5Y cells were seeded in the same density and differentiated by the procedure shown above. Astrocyte cells A-172 were also seeded as described in previous section. Both cell lines were co-treated by 3NPA (20 mM for SH-SY5Y cells, […]) and tested compounds at 0.1, 1 and 10 μM concentration for 48 h.

astrocyte A-172 cells = test: 3NPA-induced model of Huntington's disease, astrocyte A-172 cells; format: cell-based, human; settings: for Astro-protective effect (% of control): difference to 10 mM 3NPA, 48 h
Experimental: as §1

[4] = tested on: SH-SY5Y human neuroblastoma cell line; test: Cytotoxicity, Calcein AM viability assay on neuron-like SH-SY5Y cells; format: cell-based; settings: 24 h
Experimental: The SH-SY5Y human neuroblastoma cell line obtained from ECACC (The European Collection of Authenticated Cell Cultures) was cultivated in Dulbecco's modified Eagle's Medium and Ham's F12 Nutrient Mixture (DMEM:F-12, 1:1), supplemented with 10% fetal bovine serum (FBS) and 1% penicillin and streptomycin at 37° C. in a humidified atmosphere 5% CO2, 95% humidity in passage limit up to ECACC+20. The assay was performed in 96-well microplate with 7000 SH-SY5Y cells per well. After 48 h, old DMEM/F12 media was removed by fresh media containing tested compounds at 0.1, 1 and 10 μM concentrations for 24 h. Glial cell line A-172 purchased from ATCC and grown in same conditions as SH-SY5Y cell line. A-172 cells were seeded in density 2000 cells per well and growing medium was replaced by treatment medium containing tested compounds in 0.1, 1 and 10 μM concentration; or in higher concentrations for R-LA or NAC positive controls for 48 hours. All tested compounds dissolved in DMSO were added into the medium. The maximum concentration of DMSO in media was kept below 0.1% (v/v). The cell viability was measured by Calcein AM (1 mg/ml ThermoFisher) viability assay. Solution of Calcein AM in PBS (0.75 μM) was pipetted to cells and incubated for 50 min. After that the fluorescence was measured at 488/517 nm (excitation/emission) using microplate reader Infinite M200 (TECAN). Calcein AM assay is based on the dye-intracellular-esterase cleavage of non-fluorescent dye (Calcein AM) by living cells to fluorescent dye (Calcein), while dying cells lose such ability. The values in Table 2 show the % of viability compared to control for all tested compounds. The results from DMSO control (medium with DMSO, <0.1% (v/v)) was postulated as 100% viability (see the first line of Table 2).

Caspase-3,7 activity (% of 800 μM SAL control) (caspase-3,7 activity; 1 μM) [%]	Caspase-3,7 activity (% of 800 μM SAL control) (caspase-3,7 activity; 10 μM) [%]	reduction of caspase-3,7 activity, in words (caspase-3,7 activity)	Compound	Superoxide radical formation (oxidative stress) % ([1]; 0.1 μM) [%]	Superoxide radical formation (oxidative stress) % ([1]; 1 μM) [%]	Superoxide radical formation (oxidative stress) % ([1]; 10 μM) [%]	Neuroprotective effect (% of control) ([2]; 0.1 μM, 24 hours)	Neuroprotective effect (% of control) ([2]; 1 μM, 24 hours)	Neuroprotective effect (% of control) ([2]; 10 μM, 24 hours)	viability, percentage of DMSO control (glial A-172 cells; 0.1 μM) [%]	viability, percentage of DMSO control (glial A-172 cells; 1 μM) [%]	viability, percentage of DMSO control (glial A-172 cells; 10 μM) [%]	Neuro-protective effect (% of control) ([3]; 0.1 μM)	Neuro-protective effect (% of control) ([3]; 1 μM)	Neuro-protective effect (% of control) ([3]; 10 μM)	Astro-protective effect (% of control) (astrocyte A-172 cells; A-172, 0.1 μM)	Astro-protective effect (% of control) (astrocyte A-172 cells; A-172, 1 μM)	Astro-protective effect (% of control) (astrocyte A-172 cells; A-172, 10 μM)	viability, percentage of DMSO control ([4]; 0.1 μM) [%]	viability, percentage of DMSO control ([4]; 1 μM) [%]	further results
–	–	–	O=C(O)CC[N+](=O)[O-] [Compound 3NPA, 3-nitropropionic acid, reference compound]	–	–	–	–	–	–	–	–	–	–	–	–	–	–	–	–	–	increase in superoxide radical's formation ([1]; 20 mM 3NPA versus DMSO control): 2.7 fold
86.8	76.5	positive effect on casp-3,7 activity	C=C(C(=O)OCc1ccco1)C1CCC2(COC(C)=O)CCC3(C)C(CCC4C5(C)CCC(OC(C)=O)C(C)(C)C5CCC43C)C12 (stereo not drawn) [Compound 5, Furan-2-yl-methyl 3β,28-diacetyloxylup-20(29)-en-30-oate]	94.1	87.3	87.1	N/A (N/A = no protection)	N/A (N/A = no protection)	18.96 % of control	96.6	100.0	90.8	N/A (N/A = no protection)	N/A (N/A = no protection)	20.63 % of control	N/A (N/A = no protection)	12.87 % of control	14.05 % of control	91.9	106.4	effect on SH-SY5Y viability in salsolinol model, in words ([2]; 800 μM salsolinol, comparison with NAC): better effect than 1000 μM NAC; efficacy relative to positive controls (by used concentration) (caspase-3,7 activity; caspase-3,7 activity, salsolinol model): 10 fold; protective effect on astrocytes in 3NPA model, in words (astrocyte A-172 cells; A-172 cells, comparison with R-LA): positive effect comparable to R-LA control; viability, percentage of DMSO control ([4]; 10 μM): 129.5%
93.2	88.3	positive effect on casp-3,7 activity	C=C(C(=O)OCc1cccs1)C1CCC2(COC(C)=O)CCC3(C)C(CCC4C5(C)CCC(OC(C)=O)C(C)(C)C5CCC43C)C12 (stereo not drawn) [Compound 6, Thiophen-2-ylmethyl 3β,28-diacetyloxy-lup-20(29)-en-30-oate]	92.2	89.9	88.0	N/A (N/A = no protection)	N/A (N/A = no protection)	7.38 % of control	99.9	98.4	96.2	N/A (N/A = no protection)	N/A (N/A = no protection)	20.53 % of control	4.27 % of control	4.57 % of control	7.45 % of control	92.1	96.2	viability, percentage of DMSO control ([4]; 10 μM): 113.5%
–	–	–	O=C(O)CCCC[C@@H]1CCSS1 [R-LA, R-lipoic acid, reference compound]	–	–	–	–	–	–	–	–	–	–	–	–	–	–	–	–	–	Astro-protective effect (% of control) (astrocyte A-172 cells; A-172, column head 0.5 μM (positive controls)): N/A (N/A = no protection); Astro-protective effect (% of control) (astrocyte A-172 cells; A-172, column head 5 μM (positive controls)): 13.27 % of control; Astro-protective effect (% of control) (astrocyte A-172 cells; A-172, column head 50 μM (positive controls)): 14.87 % of control
–	–	–	C[C@@H]1NCCc2cc(O)c(O)cc21 [SAL, salsolinol, reference compound]	–	–	–	–	–	–	–	–	–	–	–	–	–	–	–	–	–	viability relative to DMSO control after SAL exposure ([2]; 800 μM salsolinol alone, 24 hours): 65.4±0.97%; increase of caspase-3,7 activity (caspase-3,7 activity; 800 μM SAL versus DMSO control): 2.9 fold
